Molecular target: BRD4 (BDI_K57-E168) (Homo sapiens, UniProt O60885)
Test: TR-FRET bromodomain binding assay, BRD4 BDI
Method: A time-resolved fluorescence resonance energy transfer (TR-FRET) assay was used to determine the affinities of compounds of the Examples listed in Table 1 for each bromodomain of BRD4. […] An Alexa647-labeled BET-inhibitor was used as the fluorescent probe in the assay.
(§1) Compound dilution series were prepared in DMSO via an approximately 3-fold serial dilution. Compound dilutions were added directly into white, low-volume assay plates (Perkin Elmer Proxiplate 384 Plus #6008280) using a Labcyte Echo in conjunction with Labcyte Access and Thermo Multidrop CombinL robotics. Compounds were then suspended in eight microliters (μL) of assay buffer (20 mM Sodium Phosphate, pH 6.0, 50 mM NaCl, 1 mM Ethylenediaminetetraacetic acid disodium salt dihydrate, 0.01% Triton X-100, 1 mM DL-Dithiothreitol) containing His-tagged bromodomain, Europium-conjugated anti-His antibody (Invitrogen PV5596) and Alexa-647-conjugated probe.
After a one-hour equilibration at room temperature, TR-FRET ratios were determined using an Envision multilabel plate reader (Ex 340, Em 495/520).
TR-FRET data were normalized to the means of 24 no-compound controls (“high”) and 8 controls containing 1 μM un-labeled probe (“low”). Percent inhibition was plotted as a function of compound concentration and the data were fit with the 4 parameter logistic equation to obtain IC50s. Inhibition constants (Ki) were calculated from the IC50s, probe Kd and probe concentration.
Compound dilution series for Compounds A-E were prepared in DMSO via an approximately 3-fold serial dilution from 0.47 mM to 7.8 nM.
as §1, with “Compound” for “Compound dilution series were prepared in DMSO via an approximately 3-fold serial dilution. Compound”
TR-FRET data were normalized to the means of 24 no-compound controls (“high”) and 8 controls containing 1 μM un-labeled probe (“low”). Percent inhibition was plotted as a function of compound concentration and the data were fit with the 4 parameter logistic equation to obtain IC50s. Inhibition constants (Ki) were calculated from the IC50s, probe Kd and probe concentration. Typical Z′ values were between 0.65 and 0.75. The minimum significant ratio was determined to evaluate assay reproducibility (Eastwood et al., (2006) J Biomol Screen, 11: 253-261). The MSR was determined to be 2.03 for BDI and 1.93 for BDII, and a moving MSR (last six run MSR overtime) for both BDI and BDII was typically <3.

| Compound | Ki [nM] |
| --- | --- |
| CC(=O)NC1CC2(C1)CC(Nc1cc(=O)n(C)cc1-c1cc(C(C)(C)O)ccc1Oc1c(C)cccc1C)C2 (stereo not drawn) [Example 10, N-[6-({5-[2-(2,6-dimethylphenoxy)-5-(2-hydroxypropan-2-yl)phenyl]-1-methyl-2-oxo-1,2-dihydropyridin-4-yl}amino)spiro[3.3]heptan-2-yl]acetamide] | 2330 |
| Cc1cccc(C)c1Oc1ccc(C(C)(C)O)cc1-c1cn(C)c(=O)cc1NC1CCN(C(=O)OC(C)(C)C)C1 (stereo not drawn) [Example 11, tert-butyl 3-({5-[2-(2,6-dimethylphenoxy)-5-(2-hydroxypropan-2-yl)phenyl]-1-methyl-2-oxo-1,2-dihydropyridin-4-yl}amino)pyrrolidine-1-carboxylate] | 1270 |
| Cc1cccc(C)c1Oc1ccc(C(C)(C)O)cc1-c1cn(C)c(=O)cc1NC1CCN(S(C)(=O)=O)C1 (stereo not drawn) [Example 12, 5-[2-(2,6-dimethylphenoxy)-5-(2-hydroxypropan-2-yl)phenyl]-4-{[1-(methanesulfonyl)pyrrolidin-3-yl]amino}-1-methylpyridin-2(1H)-one] | 553 |
| CC(=O)N[C@H]1CC[C@H](N(C)c2cc(=O)n(C)cc2-c2cc(C(C)(C)O)ccc2Oc2c(C)cc(F)cc2C)CC1 [Example 13, N-{trans-4-[{5-[2-(4-fluoro-2,6-dimethylphenoxy)-5-(2-hydroxypropan-2-yl)phenyl]-1-methyl-2-oxo-1,2-dihydropyridin-4-yl}(methyl)amino]cyclohexyl}acetamide] | > 13000 |
| CC(=O)N1CCC(Nc2cc(=O)n(C)cc2-c2cc(C(C)(C)O)ccc2Oc2c(C)cccc2C)C1 (stereo not drawn) [Example 14, 4-[(1-acetylpyrrolidin-3-yl)amino]-5-[2-(2,6-dimethylphenoxy)-5-(2-hydroxypropan-2-yl)phenyl]-1-methylpyridin-2(1H)-one] | 1550 |
| Cc1cc(F)cc(C)c1Oc1ccc(C(C)(C)O)cc1-c1cn(C)c(=O)cc1O[C@H]1CC[C@H](CNC(=O)OC(C)(C)C)CC1 [Example 15, tert-butyl [trans-4-({5-[2-(4-fluoro-2,6-dimethylphenoxy)-5-(2-hydroxypropan-2-yl)phenyl]-1-methyl-2-oxo-1,2-dihydropyridin-4-yl}oxy)cyclohexyl]methylcarbamate] | 6020 |
| CC(=O)N(C)[C@H]1CC[C@H](Oc2cc(=O)n(C)cc2-c2cc(C(C)(C)O)ccc2Oc2c(C)cc(F)cc2C)CC1 [Example 16, N-[trans-4-({5-[2-(4-fluoro-2,6-dimethylphenoxy)-5-(2-hydroxypropan-2-yl)phenyl]-1-methyl-2-oxo-1,2-dihydropyridin-4-yl}oxy)cyclohexyl]-N-methylacetamide] | 2830 |
| CC(=O)N[C@H]1CC[C@H](Oc2cc(=O)n(C)cc2-c2cc(C(C)(C)O)cnc2Oc2c(C)cc(C(C)(C)O)cc2C)CC1 [Example 17, N-[trans-4-({5′-(2-hydroxypropan-2-yl)-2′-[4-(2-hydroxypropan-2-yl)-2,6-dimethylphenoxy]-1-methyl-6-oxo[1,6-dihydro[3,3′-bipyridine]]-4-yl}oxy)cyclohexyl]acetamide] | 1170 |
| CC(=O)N[C@H]1CC[C@H](Oc2cc(=O)n(C)cc2-c2cc(C(C)(C)O)ccc2Oc2c(C)cc(C(C)(C)O)cc2C)CC1 [Example 18, N-{trans-4-[(5-{5-(2-hydroxypropan-2-yl)-2-[4-(2-hydroxypropan-2-yl)-2,6-dimethylphenoxy]phenyl}-1-methyl-2-oxo-1,2-dihydropyridin-4-yl)oxy]cyclohexyl}acetamide] | 982 |
| CC(=O)N[C@H]1CC[C@H](Nc2cc(=O)n(C)cc2-c2cc(C(C)(C)O)ccc2Oc2c(C)cc(F)cc2C)CC1 [Example 19, N-[trans-4-({5-[2-(4-fluoro-2,6-dimethylphenoxy)-5-(2-hydroxypropan-2-yl)phenyl]-1-methyl-2-oxo-1,2-dihydropyridin-4-yl}amino)cyclohexyl]acetamide] | 2890 |
| COC(=O)N[C@H]1CC[C@H](Oc2cc(=O)n(C)cc2-c2cc(C(C)(C)O)ccc2Oc2c(C)cc(C(C)(C)O)cc2C)CC1 [Example 20, methyl {trans-4-[(5-{5-(2-hydroxypropan-2-yl)-2-[4-(2-hydroxypropan-2-yl)-2,6-dimethylphenoxy]phenyl}-1-methyl-2-oxo-1,2-dihydropyridin-4-yl)oxy]cyclohexyl}carbamate] | 1090 |
| CC(=O)NC[C@@H]1CC[C@H](Oc2cc(=O)n(C)cc2-c2cc(C(C)(C)O)ccc2Oc2c(C)cc(F)cc2C)[C@H]1C [Example 22, N-{[(1R,2S,3S)-3-({5-[2-(4-fluoro-2,6-dimethylphenoxy)-5-(2-hydroxypropan-2-yl)phenyl]-1-methyl-2-oxo-1,2-dihydropyridin-4-yl}oxy)-2-methylcyclopentyl]methyl}acetamide] | 2870 |
| Cc1cc(F)cc(C)c1Oc1ccc(C(C)(C)O)cc1-c1cn(C)c(=O)cc1NC1CCC(C)(O)CC1 (stereo not drawn) [Example 23, 5-[2-(4-fluoro-2,6-dimethylphenoxy)-5-(2-hydroxypropan-2-yl)phenyl]-4-[(trans-4-hydroxy-4-methylcyclohexyl)amino]-1-methylpyridin-2(1H)-one] | 3630 |
| Cc1cc(F)cc(C)c1Oc1ccc(C(C)(C)O)cc1-c1cn(C)c(=O)cc1O[C@H]1CC[C@H](N2CCCC2=O)CC1 [Example 24, 5-[2-(4-fluoro-2,6-dimethylphenoxy)-5-(2-hydroxypropan-2-yl)phenyl]-1-methyl-4-{[trans-4-(2-oxopyrrolidin-1-yl)cyclohexyl]oxy}pyridin-2(1H)-one] | 2860 |
| COC(=O)N[C@H]1CC[C@H](Oc2cc(=O)n(C)cc2-c2cc(C(C)(C)O)cnc2Oc2c(C)cc(C(C)(C)O)cc2C)CC1 [Example 25, methyl [trans-4-({5′-(2-hydroxypropan-2-yl)-2′-[4-(2-hydroxypropan-2-yl)-2,6-dimethylphenoxy]-1-methyl-6-oxo[1,6-dihydro[3,3′-bipyridine]]-4-yl}oxy)cyclohexyl]carbamate] | 2220 |
| COCC(=O)N1CCC(Oc2cc(=O)n(C)cc2-c2cc(C(C)(C)O)cnc2Oc2c(C)cc(F)cc2C)CC1 [Example 26, 2′-(4-fluoro-2,6-dimethylphenoxy)-5′-(2-hydroxypropan-2-yl)-4-{[1-(methoxyacetyl)piperidin-4-yl]oxy}-1-methyl[3,3′-bipyridin]-6(1H)-one] | 8850 |
| Cc1cccc(C)c1Oc1ccc(C(C)(C)O)cc1-c1cn(C)c(=O)cc1O[C@H]1CC[C@H](N2CCCC2=O)CC1 [Example 27, 5-[2-(2,6-dimethylphenoxy)-5-(2-hydroxypropan-2-yl)phenyl]-1-methyl-4-{[trans-4-(2-oxopyrrolidin-1-yl)cyclohexyl]oxy}pyridin-2(1H)-one] | 1900 |
| C=CC(=O)N[C@H]1CC[C@H](Oc2cc(=O)n(C)cc2-c2cc(C(C)(C)O)ccc2Oc2c(C)cc(F)cc2C)CC1 [Example 28, N-[trans-4-({5-[2-(4-fluoro-2,6-dimethylphenoxy)-5-(2-hydroxypropan-2-yl)phenyl]-1-methyl-2-oxo-1,2-dihydropyridin-4-yl}oxy)cyclohexyl]prop-2-enamide] | 1520 |
| Cc1cc(F)cc(C)c1Oc1ccc(C(C)(C)O)cc1-c1cn(C)c(=O)cc1O[C@H]1CC[C@H](N2CCCCC2=O)CC1 [Example 29, 5-[2-(4-fluoro-2,6-dimethylphenoxy)-5-(2-hydroxypropan-2-yl)phenyl]-1-methyl-4-{[trans-4-(2-oxopiperidin-1-yl)cyclohexyl]oxy}pyridin-2(1H)-one] | 2220 |
| Cc1cc(F)cc(C)c1Oc1ccc(C(C)(C)O)cc1-c1cn(C)c(=O)cc1O[C@H]1CC[C@H](N2CC(C)(C)C2=O)CC1 [Example 30, 4-{[trans-4-(3,3-dimethyl-2-oxoazetidin-1-yl)cyclohexyl]oxy}-5-[2-(4-fluoro-2,6-dimethylphenoxy)-5-(2-hydroxypropan-2-yl)phenyl]-1-methylpyridin-2(1H)-one] | 3300 |
| Cc1cc(F)cc(C)c1Oc1ccc(C(C)(C)O)cc1-c1cn(C)c(=O)cc1O[C@H]1CC[C@H](N2CCCNC2=O)CC1 [Example 31, 1-[trans-4-({5-[2-(4-fluoro-2,6-dimethylphenoxy)-5-(2-hydroxypropan-2-yl)phenyl]-1-methyl-2-oxo-1,2-dihydropyridin-4-yl}oxy)cyclohexyl]tetrahydropyrimidin-2(1H)-one] | 2410 |

— patent US20210047304A1, “Bromodomain Inhibitors” (AbbVie Inc., priority 2016, published 2021)
